Laboratory results as given in publication PMC5381194, “On-chip in vitro cell-network pre-clinical cardiac toxicity using spatiotemporal human cardiomyocyte measurement on a chip” (Scientific Reports, 2014).
Like-named read-outs stand apart in the source and are kept apart here.

Columns and labels:
[1] = set-up: method as in references and pharmaceutical attachments; settings: clinical report; effective therapeutic plasma concentration; ref references and pharmaceutical attachments; cited from earlier work
hERG = hERG (Homo sapiens, UniProt Q12809); test: hERG assay: K+ current by patch clamp in hERG expressing CHO-K1 cells; settings: pH 7.4
Protocol: Supplementary Explanation of Methods [in online]
Measurement of potassium (K+) current by patch clamp in hERG expressing CHO-K1 cells A patch clamp glass electrode was filled with internal solution (KCl: 130 mM, MgCl2: 1 mM, EGTA: 5 mM, MgATP: 5 mM, HEPES: 10 mM, pH 7.20). The electrode was attached to a patch clamp headstage holder and the tip of the electrode was brought into contact with the cell membrane with a micromanipulator under the microscope. Slight negative pressure from suction was created inside the electrode and the patch clamp system AXOPATCH 200B (Axon Instruments) and Clampex 9.2 was used to obtain a measured membrane resistance value (R-memb) greater than 20 megohms. The resting membrane potential was set at -80 mV just to wait to obtain R-memb greater than 1 gigaohms. Then to make whole-cell clamp mode, a strong suction was applied to rupture the cell membrane under the electrode. Cell capacitance and series resistance were compensated. The stimulation protocol (holding potential: -80 mV, depolarization pulse: +50 mV, for 2 s, repolarization pulse: -40 mV, for 2 s, pulse frequency:
0.067 Hz) was applied and the corresponding current was recorded. After the current waveform became stable, the application solutions were added cumulatively from the lowest concentration.
The cells were exposed to each concentration for 5 minutes and washed with Tyrode solution […]
pH 7.40) to observe the recovery after the exposure to the highest concentration. All experiments (n=3) were carried out at room temperature. The cells were perfused with Tyrode solution at the rate of 2.5 ml/min through the experiment as the background flow. The test compound was added to the cells directly via a pipette set nearby the cells at the rate of 350-400 µl/min.
Percentage change from pre-application values in tail peak current (% inhibition) was calculated […]
application/average of the consecutive 4 currents just before the start of the first application (the lowest one)] × 100. The dose levels were selected to describe the dose response curve. The maximum concentration was set to at least approximately 30~100 times its effective therapeutic plasma concentration in consideration of the solubility. […]

[2] = test system: human embryonic stem cell-derived cardiomyocyte cluster (hES-CMC); settings: for Arrest (%) / Fib-like (%): human, 10 min
[3] = test system: human embryonic stem cell-derived cardiomyocyte cluster (hES-CMC); test: On-chip MEA field potential recording of hCM clusters (temporal FPD and STVFPD); settings: for Score (On-chip MEA system, VT/TdP risk): more than 1.9-fold of STVFPD is the border of high risk of VT/TdP; for FPD (ratio) / STVFPD (ratio): 10 μM (Ref. dose ca. 10^2 × CMAX), ratio against the control, mean ± S.E.
[4] = clinical VT/TdP risk compiled from the literature; ref literature; cited from earlier work
[5] = test system: guinea pig right ventricular papillary muscle; test: APD assay: action potential recording in guinea pig right ventricular papillary muscle; settings: relative ratio against the control, mean
Protocol: After the current waveform
(n=3) were carried out at room temperature. The cells were perfused with Tyrode solution at the […]
lowest one)] × 100. […] The […]
plasma concentration in consideration of the solubility. […]
(§1) megohms, which was coupled to an Ag-AgCl bath electrode and connected to a microelectrode […]
(§2) amplifier (MEZ-8300, Nihon Koden). […]
(§3) computer system (WinCAPA1.6.6.Aui, Physio-Tech). The components of the action potential analyzed by the computer system are: resting membrane potential (RMP), action potential amplitude (APA), overshoot (OS), action potential duration at 30%, 50% and 90% of repolarization (APD30, APD50 and APD90, respectively) and maximum rate of rising phase (V max = dV/dt max). After an equilibration period for at least one hour, the test compound was added to the organ bath at increasing cumulative concentrations. The administration volume and rate was 20, 40, 140 µl/20 ml organ bath and 1 s/dose. Cardiac action potentials were recorded before and 30 minutes after the exposure of the test compound at each concentration.
(§4) Monophasic action potential duration (MAPD) measurements in isolated Langendorff-perfused female rabbit heart
(§5) Female NZW rabbit were anesthetized by an intravenous injection of thiopental (30 mg/kg) and heparin (500 U/kg). Then the heart was quickly removed and its aorta was cannulated, the bundle of His was sectioned, for perfusion of the coronary artery according to the Langendorff method with constant pressure (initial perfusion pressure: 60-70 mmHg). The heart was perfused at […]
KCl: 4.7 mM, CaCl2: 2.5 mM, MgSO4: 1.2 mM, KH2PO4: 1.2 mM, NaHCO3: 25 mM, glucose:
Two electrocardiogram (ECG) […]
electrodes were held lightly against the epicardium, the positive one on the left ventricle, the […]

[6] = test system: isolated Langendorff-perfused female rabbit heart; test: MAPD measurement in isolated Langendorff-perfused female rabbit heart; settings: relative ratio against the control, mean
From the text: as §1, §2, §3
The dose levels were selected to describe the dose response curve.
as §4, §5

[7] = hCM clusters, 10 μM, ratio of lethally abnormal events

Chain of hERG (Q12809 whole entry): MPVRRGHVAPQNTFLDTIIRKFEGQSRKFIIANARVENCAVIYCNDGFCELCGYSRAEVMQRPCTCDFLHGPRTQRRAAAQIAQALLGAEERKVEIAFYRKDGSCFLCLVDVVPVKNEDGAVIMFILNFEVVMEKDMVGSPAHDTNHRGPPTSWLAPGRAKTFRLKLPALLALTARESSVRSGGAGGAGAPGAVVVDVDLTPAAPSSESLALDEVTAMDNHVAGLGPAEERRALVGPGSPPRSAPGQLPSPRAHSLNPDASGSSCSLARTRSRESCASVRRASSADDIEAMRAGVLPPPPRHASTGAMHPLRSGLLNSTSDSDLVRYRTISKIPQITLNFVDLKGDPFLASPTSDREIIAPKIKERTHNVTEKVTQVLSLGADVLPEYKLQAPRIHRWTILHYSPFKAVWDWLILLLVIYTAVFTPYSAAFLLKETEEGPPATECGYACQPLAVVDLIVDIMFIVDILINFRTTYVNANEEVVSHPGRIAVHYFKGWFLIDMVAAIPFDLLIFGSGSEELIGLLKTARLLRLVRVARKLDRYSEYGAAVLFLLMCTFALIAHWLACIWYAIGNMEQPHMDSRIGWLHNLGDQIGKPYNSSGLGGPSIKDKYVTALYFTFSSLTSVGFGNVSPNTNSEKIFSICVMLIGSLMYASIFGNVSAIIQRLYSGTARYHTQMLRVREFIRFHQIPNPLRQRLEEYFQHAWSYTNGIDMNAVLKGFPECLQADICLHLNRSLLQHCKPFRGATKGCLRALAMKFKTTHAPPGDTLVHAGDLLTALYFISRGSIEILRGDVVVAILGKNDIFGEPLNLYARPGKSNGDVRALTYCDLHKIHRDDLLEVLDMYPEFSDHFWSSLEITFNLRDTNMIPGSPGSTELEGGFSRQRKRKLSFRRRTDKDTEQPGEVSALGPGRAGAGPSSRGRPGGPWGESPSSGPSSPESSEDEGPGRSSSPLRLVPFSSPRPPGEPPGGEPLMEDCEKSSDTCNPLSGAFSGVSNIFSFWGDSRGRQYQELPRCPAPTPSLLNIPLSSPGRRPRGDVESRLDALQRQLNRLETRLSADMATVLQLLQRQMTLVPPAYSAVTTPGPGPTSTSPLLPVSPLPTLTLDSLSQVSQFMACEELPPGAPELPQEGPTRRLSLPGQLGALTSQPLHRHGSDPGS

SMILES	Score (On-chip MEA system, VT/TdP risk) [3]	Cmax [1] [nM]	VT/VF/TdP (Clinical report) [4]	Arrest (%) ([2]; 10 µM)	Fib-like (%) ([2]; 10 µM)	further results
CC(C)NCC(O)c1ccc(NS(C)(=O)=O)cc1 (racemic) [DL-sotalol]	–	2500	–	–	–	inhibition at 5 min, 30 µM (hERG; CHO-K1 cells expressing hERG): 19.2%; Score (On-chip MEA system, VT/TdP risk) [2]: High; Arrest (%) ([2]; 1000 µM): 5%; Fib-like (%) ([2]; 1000 µM): 0%
COc1ccc(CCN2CCC(Nc3nc4ccccc4n3Cc3ccc(F)cc3)CC2)cc1 [Astemizole]	High	2	(+)	–	–	Arrest (%) ([2]; 0.1 µM): 0%; Fib-like (%) ([2]; 0.1 µM): 14%
CC(C)COCC(CN(Cc1ccccc1)c1ccccc1)N1CCCC1 (centres unmarked) [Bepridil]	High	300	(+)	5	5	APD90 prolongation in papillary musole (ratio) ([5]; 10 μM): 1.02 ratio; inhibition at 5 min, 0.3 µM (hERG; CHO-K1 cells expressing hERG): 61.9%; MAPD90 prolongation in Langendorff hearts (ratio) ([6]; 10 μM): 1.12 ratio; FPD (ratio) ([3]; hCM clusters): 1.21 ± 0.12 ratio; STVFPD (ratio) ([3]; hCM clusters): 4.74 ± 2.26 ratio
COc1cc(N)c(Cl)cc1C(=O)NC1CCN(CCCOc2ccc(F)cc2)CC1OC (centres unmarked) [Cisapride]	High	180	(+)	0	4	APD90 prolongation in papillary musole (ratio) ([5]; 1 μM): 1.14 ratio; inhibition at 5 min, 1 µM (hERG; CHO-K1 cells expressing hERG): 90.6%; MAPD90 prolongation in Langendorff hearts (ratio) ([6]; 1 μM): 1.37 ratio; FPD (ratio) ([3]; hCM clusters): 1.37 ± 0.07 ratio; STVFPD (ratio) ([3]; hCM clusters): 3.82 ± 0.85 ratio
CN(C)CCCC1(c2ccc(F)cc2)OCc2cc(C#N)ccc21 (centres unmarked) [Citalopram]	High	270	(+)	12	0	APD90 prolongation in papillary musole (ratio) ([5]; 10 μM): 0.95 ratio; inhibition at 10 µM (hERG): 83.5%; FPD (ratio) ([3]; hCM clusters): 0.86 ± 0.04 ratio; STVFPD (ratio) ([3]; hCM clusters): 2.75 ± 0.78 ratio
NC(N)=Nc1nc(CSCCC(N)=NS(N)(=O)=O)cs1 [Famotidine]	Low	190	–	0	0	–
COc1c(N2C[C@@H]3CCCN[C@@H]3C2)c(F)cc2c(=O)c(C(=O)O)cn(C3CC3)c12 [Moxifloxacin]	–	10000	–	–	–	Arrest (%) ([2]; 100 µM): 0%; Fib-like (%) ([2]; 100 µM): 0%
Fc1ccc([C@@H]2CCNC[C@H]2COc2ccc3c(c2)OCO3)cc1 [Paroxetin]	High	70	–	–	–	FPD (ratio) ([3]; hCM clusters): 1.30 ± 0.06 ratio; STVFPD (ratio) ([3]; hCM clusters): 2.27 ± 0.41 ratio; Arrest (%) [3, 7]: 13%; Fib-like (%) [3, 7]: 0%
CC(C)(C)c1ccc(C(O)CCCN2CCC(C(O)(c3ccccc3)c3ccccc3)CC2)cc1 (centres unmarked) [Terfenadine]	High	220	(+)	21	3	STVFPD in hCM clusters, long-term observation ([3]; 0.3 μM, even at 72 h): no significant increase; time at which FPD reached the risk level ([3]; 0.3 μM, hCM clusters, long-term observation): 24 h; FPD in hCM clusters, long-term observation ([3]; 0.3 μM, observed 8 h after application): gradual increase

More lines, main results first:

Score (On-chip MEA system, VT/TdP risk) [3]	SMILES	Cmax [1] [nM]	VT/VF/TdP (Clinical report) [4]	Arrest (%) ([2]; 10 µM)	Fib-like (%) ([2]; 10 µM)	further results
Low	COc1ccc([C@@H]2Sc3ccccc3N(CCN(C)C)C(=O)[C@@H]2OC(C)=O)cc1 [Diltiazem]	110	–	–	–	Arrest (%) ([2]; 1 µM): 50%; Fib-like (%) ([2]; 1 µM): 0%
Low	CC(C)(C)c1ccc(C(=O)CCCN2CCC(OC(c3ccccc3)c3ccccc3)CC2)cc1 [Ebastine]	160	–	–	–	Arrest (%) ([2]; 1 µM): 0%; Fib-like (%) ([2]; 1 µM): 0%
High	O=C(NCC1CCCCN1)c1cc(OCC(F)(F)F)ccc1OCC(F)(F)F (centres unmarked) [Flecainide]	430	–	–	–	inhibition at 5 min, 10 µM (hERG; CHO-K1 cells expressing hERG): 88.3%; Arrest (%) ([2]; 100 µM): 13%; Fib-like (%) ([2]; 100 µM): 0%
Low	C[C@H]1COc2c(N3CCN(C)CC3)c(F)cc3c(=O)c(C(=O)O)cn1c23 [Levofloxacin]	22000	–	–	–	inhibition at 5 min, 300 µM (hERG; CHO-K1 cells expressing hERG): 13.2%; Arrest (%) ([2]; 1000 µM): 40%; Fib-like (%) ([2]; 1000 µM): 4%
High	CSc1ccc2c(c1)N(CCC1CCCCN1C)c1ccccc1S2 (centres unmarked) [Thioridazine]	1800	(+)	0	0	–
